Article PMC5430962, “Retro-inverso Urokinase Receptor Antagonists for the Treatment of Metastatic Sarcomas” (Scientific Reports, 2017)
pIC50: −log10 of the molar value. Where a SMILES comes first, the peptide text is derived from it. Where no end group is shown, it is not given here. [ ]: non-standard residue; d: D form. The star is where a group is joined. Hydrocinnamoyl = O=C(CCc1ccccc1)*; PhAc = O=C(Cc1ccccc1)*; Aib = CC(C)(N)C(=O)O

How the values were obtained:
[1] = test system: GFP-tagged Sarc cells; test: Growth and spread of subcutaneous GFP-tagged Sarc tumors in nude mice; type: in vivo, Foxn1nu/nu female nude mice; details: 6 mg/Kg i.p. every day for 12 days, five mice per group
Protocol: To evaluate the effect of RI-3 on tumor growth and vascularization, Sarc cells were injected, as a single-cell suspension (1 × 10^6 cells in 100 µl of sterile PBS, 97% viability), subcutaneously in the flanks of sixteen six-eight weeks old, Foxn1nu/nu female nude mice (Harlan). Animals were randomized into two 8-mice groups with the treatment group receiving 6 mg/kg RI-3 by intra-peritoneal injection every 24 hr, and the control group receiving an equivalent injected volume of vehicle (PBS) only. Time-dependent average weight was monitored every two days. The length and the width of tumors were measured at different time points with a calliper and volumes were calculated using the formula: ½ × (width)[2] × length (mm). After 10 days, blood samples (at least 500 µL/mouse) from the retro-orbital venous plexus of mice anesthetized with 1% isoflurane were collected using a heparinized capillary tube and processed for determination of the Circulating Tumor Cells (CTCs). Then, the animals were sacrificed, the excised tumors were fixed in buffered formalin and processed for paraffin sectioning. Tumor vascularization was assessed by counting vascular channels harbouring red blood cells on CD31 immuno-stained sections in 5 randomly chosen fields per section, in at least two sections per tumor at x 200 as described. Two additional experiments were carried out with the same experimental design by injecting GFP-tagged Sarc cells (1 × 10^6 cells/mouse) subcutaneously in the flanks of twenty-five six-eight weeks old, Foxn1nu/nu female nude mice (Harlan). Animals were treated with 6 mg/kg RI-3, 6 mg/kg RERF or vehicle by intra-peritoneal injection every 24 hr for 10 or 12 days. Tumor growth and the appearance of positive tumor lesions near tumors and in lungs were monitored as brightly visualized by GFP fluorescence with a MacroFluo fluorescence stereomicroscope (Leica). We searched for the presence of GFP-positive nodules on the entire surface of freshly isolated lungs. Lungs were also sliced at approximately 3-mm thickness to examine the parenchyma in depth, and the positive nodules were acquired at higher magnification.

[2] = test system: HT1080 cells; test: HT1080 cell migration toward 10% FBS in Boyden chambers; type: cell-based, human; details: 10 nM peptide plus 10% FBS, 4 hr, means of three independent experiments in triplicate
Protocol: (§1) Cell migration in Boyden chambers was carried out for 4 hr at 37 °C in humidified air with 5% CO2, as described. Briefly, cell suspension (1 × 10^5 viable cells/mL serum free medium) was seeded in each upper chamber. Lower chambers were filled with DMEM alone, DMEM containing RI peptides, 10 nM fMLF, or 10% FBS with/without RI peptides. The two compartments were separated by 8 μm pore size polycarbonate filters (Neuroprobe) coated with 2.5 µg/mL vitronectin (Corning). For the invasion assays, 8 μm pore size filters were coated with 50 μg/filter matrigel (BD Biosciences) as previously described[40] and cells (3 × 10^4 viable cells/well) were allowed to invade matrigel for 6 hr at 37 °C, 5% CO2. In all cases, at the end of the assay, cells on the lower filter surface were fixed with ethanol, stained with haematoxylin and 10 random fields/filter were counted at 200× magnification. Each experiment was performed three times in triplicate.

[3] = test system: HT1080 cells; test: HT1080 matrigel invasion toward 10% FBS in Boyden chambers; type: cell-based, human; details: 10 nM peptide plus 10% FBS, 6 hr, means of three independent experiments in triplicate
Protocol: as §1

[4] = cited from earlier work
Source text: (§2) Following on this observation, we developed a series of linear peptides that inhibit the uPAR/FPR1 interaction and reduce to basal levels directional cell migration, invasion and angiogenesis[37]–[40]. While providing proof-of-principle for the strategy, none of these peptides represents an ideal lead molecule: many of these peptides are unstable to enzymatic digestion in human serum, which limits their half-life in vivo, whereas ...

[5] = test system: sarcoma cell; details: cited from earlier work
Source text: as §2

[6] = test system: HT1080 cells; test: HT1080 cell migration toward peptide as chemoattractant, xCELLigence RTCA; type: cell-based, human; details: migration toward 10 nM peptide, monitored 18 hr, quadruplicate
Protocol: The kinetics of cell migration was monitored in real time using the xCELLigence Real Time Cell Analysis (RTCA) technology (Acea Bioscience) as described, [80]. For these experiments we used CIM-plates which are provided with interdigitated gold microelectrodes on the bottom side of a filter membrane interposed between a lower and an upper compartment. The lower chamber was filled with serum-free medium or growth medium with/without RI peptides. Cells (2 × 10^4 cells/well) were seeded on filters in serum-free medium. Cell migration was monitored for 18 hr, and each experiment was performed at least twice in quadruplicate.

[7] = target: T1, FPR1 (Homo sapiens, UniProt P21462); test: Ligand binding assay: FITC-fMLF binding to RBL-2H3/ETFR cells; details: 100 nM unlabeled peptide 60 min at 4 °C, then 10 nM FITC-fMLF 60 min at 4 °C; fluorescence plate reader
T1 construct: expressed in transfected cells; host or cells: rat basophilic leukaemia RBL-2H3/ETFR cells (gift of F. Blasi)
T1 sequence (P21462 1-350): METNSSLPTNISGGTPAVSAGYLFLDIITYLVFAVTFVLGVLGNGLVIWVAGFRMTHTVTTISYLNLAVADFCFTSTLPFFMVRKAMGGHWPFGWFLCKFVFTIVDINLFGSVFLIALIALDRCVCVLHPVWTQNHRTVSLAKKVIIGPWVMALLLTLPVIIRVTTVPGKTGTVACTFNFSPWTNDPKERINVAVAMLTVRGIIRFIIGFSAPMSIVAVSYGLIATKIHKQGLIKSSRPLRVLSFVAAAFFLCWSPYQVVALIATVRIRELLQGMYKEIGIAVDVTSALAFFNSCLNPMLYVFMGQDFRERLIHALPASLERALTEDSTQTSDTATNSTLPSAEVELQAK
Protocol: RBL-2H3 cells, RBL-2H3/ETFR cells stably expressing FPR1 (1.5 × 10^6 cells/sample) were pre-incubated with diluents or the indicated unlabeled peptides for 60 min at 4 °C, extensively rinsed with phosphate buffer saline (PBS), exposed to 10 nM FITC-fMLF (Molecular Probes) in PBS for additional 60 min at 4 °C and again rinsed with PBS. Cell-associated fluorescence was quantitated with the fluorescence plate reader Victor 3 (Perkin Elmer) using 485 nm excitation and 535 nm emission filters. The experiments were performed three times in triplicate.

[8] = target: T1, FPR1; test: Agonist-dependent FPR1 internalization, fluorescence microscopy in RBL-2H3/ETFR cells; type: cell-based; details: 100 nM peptide 30 min at 37 °C, then 10 nM FITC-fMLF 30 min at 37 °C; confocal microscopy
Protocol: Cells grown on glass slides to semi-confluence were exposed to diluents or the indicated unlabeled peptides for 30 min at 37 °C, then to 10 nM FITC-fMLF in PBS for additional 30 min at 37 °C and extensively rinsed with PBS. To visualize the cytoskeleton, the cells were fixed with 2.5% formaldehyde, permeabilized with 0.1% Triton X-100 for 10 min at 4 °C, and incubated with 0.1 µg/mL rhodamine-conjugated phalloidin (Sigma-Aldrich) for 40 min. In all cases, coverslips were mounted using 20% (w/v) Mowiol, visualized with a Zeiss 510META-LSM microscope (Carl Zeiss), and z-series were collected at 0.20 µm intervals.

[9] = test system: monocyte; details: read-out: IC50 of inhibition of fMLF-induced monocyte locomotion; cited from earlier work
Source text: The uPAR domains DI-DIII are connected by short linker regions. DI-DIII pack together into a concave structure that shifts to an active conformation upon binding to uPA[21], [22]. The linker between DI-DII is more flexible than that between the DII‒DIII domains[23]–[25], and includes the protease-sensitive crucial signaling region, uPAR84–95. In the form of a synthetic peptide, the minimal 88–92 sequence (Ser^88-Arg-Ser-Arg-Tyr^92, SRSRY) retains chemotactic activity and triggers directional cell migration and angiogenesis in vitro and in vivo [15]–[17], [26], [27]. Mechanistically, these ...

| Compound | reduction of FBS-directed cell migration [2] | reduction of the extent of cell invasion (matrigel) [3] | further results |
| --- | --- | --- | --- |
| CC(=O)N[C@@H](CCCNC(=N)N)C(=O)N[C@@H](CCC(=O)O)C(=O)N[C@@H](CCCNC(=N)N)C(=O)N[C@@H](Cc1ccccc1)C(N)=O [RERF, reference compound] (Ac-RERF-NH2) | – | – | changes in body weight [1]: did not cause changes in body weight |
| CC(=O)N[C@H](Cc1ccc(O)cc1)C(=O)N[C@H](CCCNC(=N)N)C(=O)N[C@H](CCC(=O)O)C(=O)N[C@H](CCCNC(=N)N)C(N)=O [RI-1, Ac-(D)-Tyr-(D)-Arg-(D)-Glu-(D)-Arg-NH2] (Ac-[dY][dR][dE][dR]-NH2) | 33% | 27% | – |
| CC(=O)N[C@H](Cc1ccc(O)cc1)C(=O)N[C@H](CCCNC(=N)N)C(=O)N[C@H](CO)C(=O)N[C@H](CCCNC(=N)N)C(N)=O [RI-2, Ac-(D)-Tyr-(D)-Arg-(D)-Ser-(D)-Arg-NH2] (Ac-[dY][dR][dS][dR]-NH2) | 29% | 23% | – |
| CC(C)(NC(=O)[C@@H](CCCNC(=N)N)NC(=O)Cc1ccccc1)C(=O)N[C@H](CCCNC(=N)N)C(N)=O [RI-4, Phenyl-Acetyl-D-Arg-Aib-D-Arg-NH2] (PhAc-[dR]-[Aib]-[dR]-NH2) | 37% | 23% | – |
| CC(C)(NC(=O)[C@@H](CCCNC(=N)N)NC(=O)CCc1ccccc1)C(=O)N[C@H](CCCNC(=N)N)C(N)=O [RI-5, 3-Phenyl-Propionyl-D-Arg-Aib-D-Arg-NH2] (Hydrocinnamoyl-[dR]-[Aib]-[dR]-NH2) | 28% | 9% | – |
| Ac-L-Arg-Aib-L-Arg-D-Ca(Me)Phe-NH2 [UPARANT] | – | – | stability in blood and resistance to enzymatic proteolysis [4]: stable in blood and displays prolonged resistance to enzymatic proteolysis; inhibition of sarcoma cell invasion in a mouse model of lung colonization [5]: does not inhibit |
| N-formyl-Met-Leu-Phe [fMLF, N-formyl-methionyl-leucyl-phenylalanine, reference compound] | – | – | ability to trigger cell migration [6]: elicited a considerable cell migration; effect on binding of FITC-fMLF to RBL-2H3/ETFR cells [7]: strongly reduced; effect on agonist-dependent FPR1 internalization [8]: prevented |
| cyclized SRSRY: cyclized form of the uPAR 88–92 sequence Ser-Arg-Ser-Arg-Tyr (also: cyclized, mode not given here) | – | – | pIC50 [9]: 11.00 |
